Entries after “also recorded” stand apart in the source; their conditions may differ.
Tests used:
VASP (serine 157) = assay: VASP phosphorylation in human platelets; type: cell-based; conditions: 25 μM, 1 min; vs DMSO
Experimental: Washed platelets were treated with PUFA or PUFA metabolite (12(S)-HETrE or compound IIc) for one minute, then directly lysed in 5× Laemmeli sample buffer (1.5 M Tris-HCl, pH 6.8, glycerol, 5% β-mercaptoethanol, 10% sodium dodecyl sulfate (SDS), and 1% bromophenol blue). The samples were boiled for five minutes and then run on a 10% SDS-PAGE gel. The levels of total and phospho-VASP (serine 157) were quantified by Western Blot using an Odyssey imaging system (LI-CoR).

[1] = system: platelets of mice expressing the human FcγRIIa receptor; assay: Animal model of ITP (anti-GPIX in mice expressing human FcγRIIa); type: in vivo, mouse; conditions: 6 mg/kg i.v. 10 min before GPIX antibody
Experimental: Mice expressing the human immune-receptor FcγRIIa were injected IV with GPIX, an antibody known to induce acute ITP (Stolla et al., Blood 118(4): 1113-1120, 2011) as previously described (Yeung et al., Blood 124(4): 2271-2279, 2014). […] To determine if 12(S)-HETrE compounds would be viable therapeutics to prevent ITP in this model, 6 mg/kg 12(S)-HETrE was injected IV 10 minutes prior to GPIX antibody injection, and platelet count was measured at several time points prior to and following antibody injection. Additionally, immunofluorescent-labelled platelets that had been injected prior to the onset of ITP were measured in excised lungs 4 hours following GPIX administration.

adenylyl cyclase = assay: LC/MS quantification of cAMP in washed human platelets; type: cell-based; conditions: 25 μM, 1 min; platelets pre-treated with 10 μM IBMX; vs DMSO
Experimental: Washed human platelets were treated with the specific ligand or vehicle control for 1 min at room temperature, and quenched with an equal volume of ice-cold 2× platelet lysis buffer containing protease and phosphatase inhibitors. Lysed platelet samples were centrifuged at 14,000 g for 7 min at 4° C. to pellet cytoskeleton and the supernatant was stored in −80° C.
To prepare the sample for LC/MS injection, 200 μL of the supernatant was spiked with 400 pg of adenosine-3′,5′-cyclic-13C5 monophosphate (^13C5-cAMP) (Toronto Research Chemicals, Inc.), an internal standard, and 600 μL of LC/MS grade acetonitrile (Fisher Scientific). The sample was briefly vortexed and centrifuged at 14,000 rpm for 10 min at 4° C. The supernatants were then air dried in a SpeedVac and reconstituted in 200 μL of LC/MS grade water and centrifuged at 10,000 rpm for 5 min at 4° C. and used for LC/MS injection.
The separation and detection of cAMP was performed on a Waters ACQUITY UPLC system equipped with a Xevo Triple Quadrupole Mass Spectrometer (TQ-S MS/MS). […]
The mass spectrometer was operated with an ESI source in positive mode. […] Cyclic AMP (cAMP) was quantitated using ^13C5-cAMP as the internal standard. […]

Rap1 = Rap1 activation in washed platelets (Rap1-GTP pull-down, Western blot); type: cell-based, mouse; conditions: 25 μM 12-HETrE, PAR4-AP stimulated, vs vehicle
Experimental: Following 1 minute of stimulation platelets were lysed with 2× platelet lysis buffer (100 mM Tris HCl, pH 7.4, 150 mM NaCl, 2% IGEPAL, 1% sodium deoxycholate, and 0.05% SDS) containing protease and phosphatase inhibitors. The cytoskeleton was pelleted by centrifugation at 14000×g for 7 minutes at 4° C. Active Rap1 was selectively captured from the supernatant by incubating GST-tagged Rap1 binding domain of RalGDS conjugated to glutathione sepharose beads for one hour on a nutator at 4° C. The beads were then washed 5 times with IP buffer and resuspended in 2× Laemmeli reducing buffer (62.5 mM Tris-HCl, pH 6.8, 2% SDS, 25% glycerol, 0.01% bromophenol blue, 5% β-mercaptoethanol). The samples were boiled for 10 minutes and then loaded onto a 10% SDS-polyacrylamide gel electrophoresis (PAGE) gel. Western blots were performed using a Rap1 antibody and quantified with a LI-COR imager.

**Q.** How did the “VASP phosphorylation (S157)” value (VASP (serine 157)) turn out when `CCCCC/C=C\C[C@H](O)/C=C/C=C\CCCCCCC(=O)O` [12(S)-HETrE, 12(S)-hydroxy-8Z,10E,14Z-eicosatrienoic acid] was run?
**A.** enhanced VASP phosphorylation

**Q.** What about the “reduction of thrombi in the lungs” value ([1]; excised lungs) of the same molecule?
**A.** more than 40%

**Q.** And the “accumulation of fluorescently labeled platelets in the lungs” value ([1]; lungs excised 4 hours after GPIX, vs vehicle)?
**A.** prevented accumulation of fluorescently labeled platelets in the lungs

**Q.** What about the “platelet count (thrombocytopenia)” value ([1]; vs vehicle) of the same molecule?
**A.** no signs of thrombocytopenia; also recorded: prevented thrombocytopenia

**Q.** What about the “level of intracellular cAMP” value (adenylyl cyclase) of the same molecule?
**A.** significant increase in the level of intracellular cAMP

**Q.** And the “Rap1 activation (Rap1-GTP)” value (Rap1; 12-LOX−/− mouse platelets)?
**A.** suppressed Rap1 activation

**Q.** What about the “Rap1 activation (Rap1-GTP)” value (Rap1; WT mouse platelets) of the same molecule?
**A.** suppressed Rap1 activation

Reference: patent publication US11111222B2, “Hydroxyeicosatrienoic acid compounds and their use as therapeutic agents” (THE REGENTS OF THE UNIVERSITY OF MICHIGAN, priority 2016, dated 2021)
